Data: patent US6413995B1, “Cinnamamide derivatives and drug compositions containing the same” (Tsumura & Co., priority 1999, dated 2002)
Read-outs that look alike come from different tables or passages of the source. Values belong to the compound of their own block, whether it stands above or below them.

Tests used:
[1] = test system: Rats with Minimal Change Nephrosis; test: Inhibitory effects on urinary proteins in rats with minimal change nephrosis (Puromycin Aminonucleoside); format: in vivo; details: S.D. male rats, PA 50 mg/kg i.v., test drug 2 mg/kg/day from day 6 to day 11, assayed at day 11
Method: Six week old S.D. male rats were intravenously injected with Puromycin Aminonucleoside (PA; SIGMA)at a dose of 50 mg/kg so as to develop nephrosis. Six days after PA treatment, the rats were administered with a test drug at a dose of 2 mg/kg/day by day 11. Each rat was assayed for an excreted urinary protein level at day 11 to determine an inhibitory rate.

[2] = test system: IL-12; test: Inhibition of IL-12 production by mouse peritoneal macrophages (ELISA); format: cell-based, mice; details: Macrophage, 48 hours, read-out: Inhibitory rate (%) IL-12; for inhibition at 10 µM: 10 μM/L
Method: (§1) C57BL/6CrSlc male mice were intraperitoneally injected with 2.0 ml of 3% Brewer tioglycolate medium. Three days later, macrophages were collected from the abdominal cavity with 5.0 ml Hank's balanced salt solution, and then equally divided into each well of a 48-well plate using RPMI 1640 medium supplemented with 10% FBS (Fetal Bovine Serum), followed by incubation in a CO2 incubator for 1 hour. After the macrophages adhered to the walls of the plate, they were incubated for 48 hours in the presence of a test compound with different concentrations. Following the incubation, the supernatant was collected from each well, assayed for IL-6, IL-10 and L-12 by ELISA to determine inhibitory rates against the production of these interleukins.

[3] = test system: IL-6; test: Inhibition of IL-6 production by mouse peritoneal macrophages (ELISA); format: cell-based, mice; details: Macrophage, 48 hours, read-out: Inhibitory rate (%) IL-6
Method: as §1

[4] = test system: IL-10; test: Inhibition of IL-10 production by mouse peritoneal macrophages (ELISA); format: cell-based, mice; details: Macrophage, 48 hours, read-out: Inhibitory rate (%) IL-10
Method: as §1

[5] = target: T1, Thromboxane A2 Synthase (Rattus norvegicus, UniProt P49430); test: Inhibitory effect on thromboxane A2 synthase: TXB2 in rat platelet rich plasma; format: cell-based, rats; details: 10 μmol/l, rat PRP
T1 construct: centrifuged at 1,300 rpm for 7 minutes to obtain platelet rich plasma (PRP); from tissue; host or cells: platelet rich plasma (washed platelets) from the abdominal aorta blood of Sprague-Dawley rats
T1 sequence (P49430 1-533): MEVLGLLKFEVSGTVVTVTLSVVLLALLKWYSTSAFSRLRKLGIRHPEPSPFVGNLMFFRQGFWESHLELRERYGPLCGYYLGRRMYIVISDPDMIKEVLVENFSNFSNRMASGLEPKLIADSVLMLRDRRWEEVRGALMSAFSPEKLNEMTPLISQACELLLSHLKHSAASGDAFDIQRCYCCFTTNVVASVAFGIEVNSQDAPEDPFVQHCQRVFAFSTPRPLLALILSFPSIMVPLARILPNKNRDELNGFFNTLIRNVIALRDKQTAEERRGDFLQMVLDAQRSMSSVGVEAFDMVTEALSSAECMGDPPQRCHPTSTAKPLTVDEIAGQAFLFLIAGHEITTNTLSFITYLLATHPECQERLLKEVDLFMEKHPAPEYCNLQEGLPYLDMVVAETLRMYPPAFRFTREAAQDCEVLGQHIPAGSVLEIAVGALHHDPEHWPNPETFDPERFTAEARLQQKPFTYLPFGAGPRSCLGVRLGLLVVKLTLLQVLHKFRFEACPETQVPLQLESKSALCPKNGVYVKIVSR
Method: Eight week old Sprague-Dawley male rats were used in this example. The rats were anesthetized with pentobarbital sodium. The blood was collected from the abdominal aorta using a heparinized syringe, and centrifuged at 1,300 rpm for 7 minutes to obtain platelet rich plasma (PRP). PRP was suspended in an equivalent volume of a buffer containing 25 mmol/l Tris-HCl, 130 mmol/l sodium chloride and 0.3 mmol/l EDTA (pH 7.4)(buffer A), followed by centrifugation at 4° C., at 1,500 rpm for 5 minutes. This procedure was repeated twice, and PRP was finally suspended in a buffer containing 25 mmol/l Tris-HCl, 130 mmol/l, 0.1% glucose and 0.1% albumin (pH7.4)(buffer B).
5×10^6 cells/mm^3 PRP preparation in buffer B was divided into each well of a 96-well plate in an amount of 150 μl/well. Each test substance was prepared at a final concentration of 10 μmol/l and added to the PRP preparation in an amount of 50 μl/well. Immediately after addition of the test substance, 5 μl of an aggregation-inducing agent, type IV collagen (1 mg/ml) or arachidonic acid (50 mmol/l), was added and incubated for 10 minutes. 20 μl of an EDTA-indomethacin solution was added to the each well to stop the reaction. The supernatant was assayed for thromboxane B2 (TXB2), stable metabolite of thromboxane A2 (TXA2), using a TXB2 measurement kit (Cayman).

- melting point: 212 °C
SMILES: Cl.O=C(O)CCc1ccc(/C=C/C(=O)NCc2cccnc2)cc1

- inhibition at 10 µM ([5]; arachidonic acid, 10 minutes, read-out: TXB2 induced by arachidonic acid (Inhibitory rate; %)): 67%
- inhibition at 10 µM ([5]; type IV collagen, 10 minutes, read-out: TXB2 induced by collagen (Inhibitory rate; %)): 32%
- inhibition at 10 µM ([5]; summary of Table 3, read-out: inhibitory activity against TXA2 production mediated by collagen or arachidonate): ≥ 50%
SMILES: CCOC(=O)COc1ccc(/C=C/C(=O)NCc2cccnc2)cc1 [Example 1, Ethyl [4-[(E)-2-[N-(3-Pyridylmethyl)carbamoyl]ethenyl]phenoxy]acetate]
- Inhibitory rate (%) of excreted urinary protein level [1]: 41%
- inhibition at 1 µg/mL ([2]; 1 μg/ml): 32.4%
- inhibition at 5 µg/mL ([2]; 5 μg/ml): 39.5%
- inhibition at 10 µg/mL ([2]; 10 μg/ml): 64.6%
- inhibition at 1 µg/mL ([3]; 1 μg/ml): 29.3%
- inhibition at 5 µg/mL ([3]; 5 μg/ml): 34.5%
- inhibition at 10 µg/mL ([3]; 10 μg/ml): 40.4%
- inhibition at 1 µg/mL ([4]; 1 μg/ml): 2.1%
- inhibition at 5 µg/mL ([4]; 5 μg/ml): 29.1%
- inhibition at 10 µg/mL ([4]; 10 μg/ml): 23.7%

- melting point: 228 to 229 °C
SMILES: C/C(=C\C(=O)NCc1cccnc1)c1ccc(OCC(=O)O)cc1 [Example 86, [4-[(E)-1-methyl-2-[N-(3-pyridylmethyl)carbamoyl]ethenyl]phenoxy]acetic acid]
- inhibition at 10 µM [2]: 48.4%

- melting point: 160 to 161 °C
SMILES: O=C(O)CSc1ccc(/C=C/C(=O)NCc2cccnc2)cc1 [Example 89, [[4-[(E)-2-[N-(3-pyridylmethyl)carbamoyl]ethenyl]phenyl]thio]acetic acid]
- inhibition at 10 µM [2]: 51.1%
